From ChEMBL document CHEMBL5370659 (J Med Chem, 2023)
Converted amounts (≈) assume the structure as drawn. The source made the active and inactive calls. The calls are words filed in the database; no cut-off is given here.

What was measured:
[1] = Cytotoxicity against human serotonergic BON cells assessed as cell viability at 300 uM incubated for 72 hrs by WST-1 assay; type: toxicity, cell-based
[2] = Half life in Sprague-Dawley rat at 20 mg/kg, po measured upto 1440 mins by LC-MS/MS analysis; type: ADME, organism-based; conditions: in vivo
[3] = Metabolic stability in rat hepatocytes assessed as intrinsic clearance; type: ADME, cell-based, Hepatocyte; conditions: read-out: CLH
[4] = Cmax in CD-1 (ICR) mouse at 50 mg/kg, po measured upto 1440 mins by LC-MS/MS analysis; type: ADME, organism-based; design: dose 50 mg/kg, time < 1440 min, route po; conditions: in vivo
[5] = Clearance in Sprague-Dawley rat at 10 mg/kg, iv measured upto 1440 mins by LC-MS/MS analysis; type: ADME, organism-based; conditions: in vivo
[6] = Tlast in CD-1 (ICR) mouse at 50 mg/kg, po measured upto 1440 mins by LC-MS/MS analysis; type: ADME, organism-based; conditions: in vivo, 24 h
[7] = target: T1, Tryptophan 5-hydroxylase 1 (Homo sapiens, UniProt P17752); assay: Inhibition of recombinant MBP-tagged full length human THP1 using L-Trp as substrate assessed as formation of 5-HTP by measuring fluorescent property
T1 sequence (P17752 whole entry): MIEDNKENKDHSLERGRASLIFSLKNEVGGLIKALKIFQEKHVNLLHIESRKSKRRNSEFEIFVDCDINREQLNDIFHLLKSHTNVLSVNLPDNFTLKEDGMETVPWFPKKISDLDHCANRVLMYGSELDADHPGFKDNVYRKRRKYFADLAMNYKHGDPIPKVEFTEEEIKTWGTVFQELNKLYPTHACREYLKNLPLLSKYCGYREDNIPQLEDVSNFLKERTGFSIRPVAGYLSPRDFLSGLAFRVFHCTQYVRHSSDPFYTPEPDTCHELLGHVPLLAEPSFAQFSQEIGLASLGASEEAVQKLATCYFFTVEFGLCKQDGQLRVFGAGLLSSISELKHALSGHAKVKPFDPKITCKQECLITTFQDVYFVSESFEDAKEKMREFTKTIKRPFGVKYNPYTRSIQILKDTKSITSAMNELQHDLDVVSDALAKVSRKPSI

[8] = MRT (0 to infinitive) in Sprague-Dawley rat at 50 mg/kg, po measured upto 1440 mins by LC-MS/MS analysis; type: ADME, organism-based; conditions: in vivo
[9] = AUCExtra in Sprague-Dawley rat at 10 mg/kg, iv measured upto 1440 mins by LC-MS/MS analysis; type: ADME, organism-based; conditions: in vivo, 24 h
[10] = Metabolic stability in rat hepatocytes assessed as half life; type: ADME, cell-based, Hepatocyte
[11] = target: Large neutral amino acids transporter small subunit 1 (Homo sapiens, UniProt Q01650); assay: Inhibition of human LAT1 transfected in MDCK-II cells co-transfected with 4F2HC or GFP using [3H]-leucine as probe substrate at 20 uM incubated for 10 mins by scintillation counting analysis; type: cell-based
Large neutral amino acids transporter small subunit 1, sequence (Q01650 whole entry): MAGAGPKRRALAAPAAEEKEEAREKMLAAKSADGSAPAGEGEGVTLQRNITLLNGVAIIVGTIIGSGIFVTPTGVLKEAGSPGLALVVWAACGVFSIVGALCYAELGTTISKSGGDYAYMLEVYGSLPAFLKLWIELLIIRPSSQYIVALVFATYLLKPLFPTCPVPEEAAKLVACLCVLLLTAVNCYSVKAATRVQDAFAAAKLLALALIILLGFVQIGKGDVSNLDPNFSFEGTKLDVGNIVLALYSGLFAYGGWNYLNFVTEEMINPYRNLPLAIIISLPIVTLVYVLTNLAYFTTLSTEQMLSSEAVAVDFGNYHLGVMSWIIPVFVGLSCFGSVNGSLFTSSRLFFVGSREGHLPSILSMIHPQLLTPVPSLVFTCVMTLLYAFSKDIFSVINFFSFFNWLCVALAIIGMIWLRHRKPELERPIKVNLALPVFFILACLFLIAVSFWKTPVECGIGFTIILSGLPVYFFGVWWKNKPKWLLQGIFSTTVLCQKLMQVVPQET

[12] = AUC (0 to infinitive) in CD-1 (ICR) mouse at 50 mg/kg, po measured upto 1440 mins by LC-MS/MS analysis; type: ADME, organism-based; design: time < 1440 min, dose 50 mg/kg, route po; conditions: in vivo
[13] = Drug uptake in CD-1 (ICR) mouse brain at 50 mg/kg measured 0.5 hrs by LC-MS/MS analysis; type: ADME, organism-based; conditions: read-out: Drug uptake
[14] = Aqueous solubility of the compound in pH 7.4 PBS buffer by HPLC-UV analysis; type: physicochemical
[15] = Substrate activity at BCRP in human Caco-2 cells seeded in polyethylene membranes at 2 uM in presence or absence of E3S incubated for 2 hrs by LC-MS/MS analysis based substrate identification assay; type: ADME, cell-based; conditions: caco-2, 2 h
[16] = system: Mus musculus; assay: Effect on time spent in central zone of C57BL/6N mouse at 100 mg/kg, po treated for 14 days by locomotor activity test; type: functional, organism-based; conditions: time 14.0 day
[17] = Drug uptake in Sprague-Dawley rat lung at 20 mg/kg, po measured at 0.5 hrs by LC-MS/MS analysis; type: ADME, organism-based; conditions: read-out: Drug uptake
[18] = target: T2, Tryptophan 5-hydroxylase 1 (Homo sapiens) (UniProt P17752); assay: Binding affinity to […] (unknown origin) assessed as dissociation rate constant by surface plasmon resonance analysis
T2 sequence (whole entry): T1 sequence (P17752 whole entry)

[19] = Permeability across basal to apical side in MDCK-MDR1 cells at pH 6.5/7.4 measured at 5 uM by LC-MS/MS analysis; type: ADME, cell-based, Canis lupus familiaris; conditions: dog, MDCK-MDR1, pH 6.5
[20] = Plasma concentration in Sprague-Dawley rat at 50 mg/kg, po measured at 0.5 hrs by LC-MS/MS analysis; type: ADME, organism-based
[21] = target: ATP-dependent translocase ABCB1 (Homo sapiens, UniProt P08183); assay: Inhibition of P-gp in human Caco-2 cells seeded in polyethylene membranes assessed as permeation in presence or absence of digoxin measured for 2 hrs by LC-MS/MS analysis based transporter assay; type: cell-based
ATP-dependent translocase ABCB1, sequence (P08183 whole entry): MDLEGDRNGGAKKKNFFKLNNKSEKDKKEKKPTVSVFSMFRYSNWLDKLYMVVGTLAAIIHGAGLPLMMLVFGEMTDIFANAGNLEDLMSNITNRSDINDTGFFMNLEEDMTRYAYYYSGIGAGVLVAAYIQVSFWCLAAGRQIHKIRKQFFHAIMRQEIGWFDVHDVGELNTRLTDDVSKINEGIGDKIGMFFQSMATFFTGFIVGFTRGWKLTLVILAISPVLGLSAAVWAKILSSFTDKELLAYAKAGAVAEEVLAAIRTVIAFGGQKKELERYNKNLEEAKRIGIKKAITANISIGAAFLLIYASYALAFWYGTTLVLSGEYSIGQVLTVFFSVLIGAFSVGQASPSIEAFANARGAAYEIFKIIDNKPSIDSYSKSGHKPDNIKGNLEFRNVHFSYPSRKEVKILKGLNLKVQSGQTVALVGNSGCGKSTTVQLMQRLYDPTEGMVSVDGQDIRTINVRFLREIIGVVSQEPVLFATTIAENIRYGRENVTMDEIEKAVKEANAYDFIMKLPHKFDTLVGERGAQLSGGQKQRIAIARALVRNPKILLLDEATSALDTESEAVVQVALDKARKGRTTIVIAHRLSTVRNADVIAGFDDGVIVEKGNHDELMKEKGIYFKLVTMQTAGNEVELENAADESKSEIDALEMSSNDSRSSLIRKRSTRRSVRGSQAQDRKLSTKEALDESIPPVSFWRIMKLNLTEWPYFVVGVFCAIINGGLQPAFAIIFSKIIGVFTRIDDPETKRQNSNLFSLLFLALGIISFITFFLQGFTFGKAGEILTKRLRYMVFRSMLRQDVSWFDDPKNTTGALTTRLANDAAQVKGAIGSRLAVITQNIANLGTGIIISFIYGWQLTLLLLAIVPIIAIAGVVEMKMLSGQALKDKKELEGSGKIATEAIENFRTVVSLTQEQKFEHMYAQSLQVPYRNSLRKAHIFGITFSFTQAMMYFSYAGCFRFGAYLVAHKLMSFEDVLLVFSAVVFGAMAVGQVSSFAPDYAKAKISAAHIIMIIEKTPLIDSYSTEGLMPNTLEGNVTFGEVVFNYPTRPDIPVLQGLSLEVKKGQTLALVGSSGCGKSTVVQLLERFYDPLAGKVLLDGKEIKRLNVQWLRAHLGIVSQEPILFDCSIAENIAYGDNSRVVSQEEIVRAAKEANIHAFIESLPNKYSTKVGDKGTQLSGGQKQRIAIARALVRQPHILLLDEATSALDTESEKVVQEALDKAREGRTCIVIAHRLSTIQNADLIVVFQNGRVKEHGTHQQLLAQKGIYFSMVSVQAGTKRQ

[22] = target: T3, Cytochrome P450 1A2 (Homo sapiens, UniProt P05177); assay: Inhibition of CYP1A2 in human liver microsome using phenacetin as substrate measured upto 50 uM incubated for 10 mins followed by NADPH addition incubated for 10 mins by LC/MS/MS analysis; type: ADME; conditions: microsomes, 20 min
T3 sequence (P05177 whole entry): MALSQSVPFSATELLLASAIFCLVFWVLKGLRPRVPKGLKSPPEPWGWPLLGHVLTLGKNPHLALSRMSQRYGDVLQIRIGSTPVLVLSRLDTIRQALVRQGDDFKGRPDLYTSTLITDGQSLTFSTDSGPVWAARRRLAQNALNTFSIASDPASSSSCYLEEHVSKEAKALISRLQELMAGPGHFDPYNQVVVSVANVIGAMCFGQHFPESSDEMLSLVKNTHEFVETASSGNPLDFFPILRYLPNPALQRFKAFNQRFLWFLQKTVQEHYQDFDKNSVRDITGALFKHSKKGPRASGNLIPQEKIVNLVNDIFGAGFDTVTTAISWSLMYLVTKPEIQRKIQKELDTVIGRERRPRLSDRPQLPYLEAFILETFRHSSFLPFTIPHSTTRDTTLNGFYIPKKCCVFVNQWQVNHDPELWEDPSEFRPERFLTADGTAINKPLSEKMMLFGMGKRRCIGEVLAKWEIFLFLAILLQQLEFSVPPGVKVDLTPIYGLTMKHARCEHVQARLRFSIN

[23] = Tmax in CD-1 (ICR) mouse at 50 mg/kg, po measured upto 1440 mins by LC-MS/MS analysis; type: ADME, organism-based; conditions: in vivo
[24] = Inhibition of BCRP in human Caco-2 cells seeded in polyethylene membranes assessed as permeation in presence or absence of E3S measured for 2 hrs by LC-MS/MS analysis based transporter assay; type: cell-based
[25] = Metabolic stability in human hepatocytes assessed as intrinsic clearance; type: ADME, cell-based, Hepatocyte; conditions: read-out: CLH
[26] = system: Mus musculus; assay: Effect on C57BL/6N mouse assessed as brain serotonin turnover measuring 5-HIAA/5-HT ratio at 1.5 to 50 mg/kg, po bid treated for 6 to 7 days; type: functional, organism-based; conditions: dose 1.5-50 mg/kg, time 6-7 day
[27] = Oral bioavailability in Sprague-Dawley rat at 20 mg/kg measured upto 1440 mins by LC-MS/MS analysis; type: ADME, organism-based; conditions: in vivo
[28] = Plasma concentration in Sprague-Dawley rat at 20 mg/kg, po measured at 2 hrs by LC-MS/MS analysis; type: ADME, organism-based

half-life [2]: 4.48 h | CLint scaled [3]: < 17 mL/min/kg | Cmax [4]: 6950 ng/mL | clearance [5]: 33.2 mL/min/kg | Tlast [6]: 12 h | IC50 [7]: 0.077 µM | MRT inf [8]: 2.75 h | %AUCextra [9]: 0.46% | half-life [10]: > 2.42 h | inhibition (INH) [11]: Not Active | AUC(0-inf) [12]: 8580 ng·h/mL | concentration at 0.5 h [13]: 53 ng/g | solubility [14]: 189 µM (≈ 75.7 µg/mL) | Activity [15]: Not Active | concentration at 0.5 h [17]: 482 ng/g | Kdiss [18]: 0.007 s⁻¹ | Papp B→A at 5 µM [19]: 15 ×10⁻⁶ cm/s | concentration at 0.5 h [20]: 5950 ng/mL | IC50 [21]: > 100 µM | inhibition (INH) [22]: Not Active | Tmax [23]: 0.333 h | CLint scaled [25]: < 8.6 mL/min/kg | bioavailability [27]: 33% | concentration at 2 h [28]: 196 ng/mL
Compound: CCn1c(=O)[nH]c(=O)c2c1nc(Cc1cn3cc(C)sc3n1)n2CC1COC1
Activity [1]: Non-Toxic | Activity [16]: inactive | IC50 [24]: > 100 µM | Activity [26]: inactive
